How the values were obtained:
Type in all cases: cell-based
[1] = MTT assay (cytotoxicity), DU145 cells; conditions: human, DU145 cells
Description: (§1) MTT assays: LNCaP, 22Rv1, Du145, H1975, A549, MB231 and MCF-7 cells are maintained in RPMI 1640 supplemented with 10% FBS. Cells were seeded at a density of 6-7×10^3 cells per well in 96-well plates. After overnight incubation, cells in fresh RPMI 1640 supplemented with 10% FBS were exposed to DMSO vehicle control or test compounds at designated concentrations for 72 h. Viable cells were evaluated by MTT assays. Experiments were performed in triplicate and repeated at least twice.

[2] = MTT assay (cytotoxicity), 22Rv1 cells; conditions: human, 22Rv1 cells, 72 h
Description: as §1

[3] = MTT assay (cytotoxicity), LNCaP cells; conditions: human, LNCaP cells, 72 h
Description: as §1

[4] = target: T1, T877A mutant of full-length AR (Homo sapiens, UniProt P10275, T878A); experiment: AR T877A mutant PSA-luc reporter assay in PC3 cells; conditions: absence of DHT, 24 h
T1 sequence (P10275 1-920 T878A): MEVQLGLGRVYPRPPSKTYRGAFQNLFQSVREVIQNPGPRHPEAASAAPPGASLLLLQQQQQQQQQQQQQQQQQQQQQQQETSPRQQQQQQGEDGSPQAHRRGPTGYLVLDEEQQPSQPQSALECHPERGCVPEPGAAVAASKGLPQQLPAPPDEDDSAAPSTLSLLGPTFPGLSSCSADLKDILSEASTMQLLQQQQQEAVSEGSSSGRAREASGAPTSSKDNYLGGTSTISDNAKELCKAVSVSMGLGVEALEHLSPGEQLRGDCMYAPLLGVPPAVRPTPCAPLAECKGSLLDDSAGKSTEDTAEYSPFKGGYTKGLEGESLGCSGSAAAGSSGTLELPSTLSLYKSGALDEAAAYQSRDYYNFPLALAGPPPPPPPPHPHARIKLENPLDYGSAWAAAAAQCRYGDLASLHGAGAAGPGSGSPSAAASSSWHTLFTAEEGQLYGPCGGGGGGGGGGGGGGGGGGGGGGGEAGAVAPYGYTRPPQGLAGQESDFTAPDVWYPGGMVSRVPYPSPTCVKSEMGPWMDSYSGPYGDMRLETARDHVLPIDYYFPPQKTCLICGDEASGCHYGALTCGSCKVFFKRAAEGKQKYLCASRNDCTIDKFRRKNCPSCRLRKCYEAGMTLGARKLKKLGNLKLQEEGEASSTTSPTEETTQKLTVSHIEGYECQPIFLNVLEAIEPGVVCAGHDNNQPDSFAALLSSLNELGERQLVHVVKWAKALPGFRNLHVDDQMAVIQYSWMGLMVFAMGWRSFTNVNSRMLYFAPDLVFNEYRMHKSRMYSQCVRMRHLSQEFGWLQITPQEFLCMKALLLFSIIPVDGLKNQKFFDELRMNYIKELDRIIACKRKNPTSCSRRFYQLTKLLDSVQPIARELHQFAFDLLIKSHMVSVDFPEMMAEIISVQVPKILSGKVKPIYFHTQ
Text: ENZ, enzalutamide; Bic, bicalutamide; OHF, hydroxyflutamide.

[5] = target: T2, endogenous AR T877A mutant in LNCaP cells (Homo sapiens, UniProt P10275, T878A); experiment: PSA-luc reporter assay in LNCaP cells (endogenous AR T877A mutant); conditions: PSA-luc, 24 h
T2 construct: LNCaP cells, which express endogenous AR T877A mutant; endogenous in cells; host or cells: LNCaP
T2 sequence (P10275 1-920 T878A): T1 sequence (P10275 1-920 T878A)
Description: Experiments were in duplicate and repeated three times. […] LNCaP cells in whole medium were exposed to DMSO vehicle control or compounds for 24 h.

O=C(N/C=C/c1cccs1)Nc1ccc([N+](=O)[O-])c(C(F)(F)F)c1 [Compound 419]
IC50 at 72 h ([1]; Table 2.4): 6.9 µM
IC50 at 72 h ([2]; Table 2.4): 4.1 µM
IC50 at 72 h ([3]; Table 2.4): 3.2 µM

O=C(N/C=C/c1cc(C(F)(F)F)ccc1C(F)(F)F)Nc1cnc2ccccc2c1 [Compound 524]
IC50 at 72 h ([1]; Table 2.3): 7.4 µM
IC50 at 72 h ([2]; Table 2.3): 8.4 µM
IC50 at 72 h ([3]; Table 2.3): 3.4 µM

CC/C=C(\C)CN(C(=O)N/C=C/c1cc(C(F)(F)F)cc(C(F)(F)F)c1)c1ccc(C#N)nc1 [Compound 534]
IC50 at 72 h ([1]; Table 2.5): 7.1 µM
IC50 at 72 h ([2]; Table 2.5): 7.3 µM
IC50 at 72 h ([3]; Table 2.5): 6 µM

CC(C)(C)OC(=O)n1cc(/C=C/NC(=O)Nc2ccc(NC(=O)N/C=C/c3cn(C(=O)OC(C)(C)C)c4ccccc34)cc2)c2ccccc21 [Compound 452]
IC50 at 72 h ([1]; Table 5.1): 3.4 µM
IC50 at 72 h ([2]; Table 5.1): > 20 µM
IC50 at 72 h ([3]; Table 5.1): > 20 µM

CC(C)(O)C(=O)Nc1ccc([N+](=O)[O-])c(C(F)(F)F)c1 [hydroxyflutamide, reference compound]
agonism of AR T877A mutant (PSA-luc) [4]: activated

O=C(N/C=C/c1cccc(C(F)(F)F)c1)Nc1ccc2c(c1)OCO2 [Compound 418]
IC50 at 72 h ([1]; Table 2.3): > 20 µM
IC50 at 72 h ([2]; Table 2.3): > 20 µM
IC50 at 72 h ([3]; Table 2.3): > 20 µM

COc1cccc(/C=C/NC(=O)Nc2ccc3c(c2)OCO3)c1 [Compound 431]
IC50 at 72 h ([1]; Table 2.3): > 20 µM
IC50 at 72 h ([2]; Table 2.3): > 20 µM
IC50 at 72 h ([3]; Table 2.3): 17.3 µM

O=C(NCCc1cccc(C(F)(F)F)c1)Nc1ccc([N+](=O)[O-])c(C(F)(F)F)c1 [Compound 448]
IC50 at 72 h ([1]; Table 2.4): 7.5 µM
IC50 at 72 h ([2]; Table 2.4): 4.5 µM
IC50 at 72 h ([3]; Table 2.4): 1.8 µM

O=C(N/C=C/c1cccc(C(F)(F)F)c1)Nc1ccc2[nH]ccc2c1 [Compound 520]
IC50 at 72 h ([1]; Table 2.3): > 10 µM
IC50 at 72 h ([2]; Table 2.3): > 10 µM
IC50 at 72 h ([3]; Table 2.3): 6.5 µM

O=C(N/C=C/c1cccc(C(F)(F)F)c1)NCc1ccc([N+](=O)[O-])cc1 [Compound 447]
effect of increasing DHT from 1 nM to 10 nM on inhibitory activity in LNCaP cells [5]: not competed out
IC50 at 72 h ([1]; Table 2.4): 8 µM
IC50 at 72 h ([2]; Table 2.4): 7.5 µM
IC50 at 72 h ([3]; Table 2.4): 7.5 µM

CC(C)(C)OC(=O)n1cnc(/C=C/NC(=O)Nc2ccc([N+](=O)[O-])c(C(F)(F)F)c2)c1 [Compound 453]
IC50 at 72 h ([1]; Table 2.4): > 20 µM
IC50 at 72 h ([2]; Table 2.4): > 20 µM
IC50 at 72 h ([3]; Table 2.4): 4 µM

O=C(Nc1cc(C(F)(F)F)cc(C(F)(F)F)c1)Nc1ccc2[nH]ccc2c1 [Compound 530]
IC50 at 72 h ([1]; Table 4.1): 8.3 µM
IC50 at 72 h ([2]; Table 4.1): 7.1 µM
IC50 at 72 h ([3]; Table 4.1): 6 µM

O=C(N/C=C/c1cc(C(F)(F)F)cc(C(F)(F)F)c1)Nc1ccc2ncccc2c1 [Compound 515]
IC50 at 72 h ([1]; Table 2.3): > 10 µM
IC50 at 72 h ([2]; Table 2.3): > 10 µM
IC50 at 72 h ([3]; Table 2.3): > 10 µM

O=C(Nc1cccc(C(F)(F)F)c1)Nc1ccncn1 [Compound 574]
IC50 at 72 h ([1]; Table 4.1): > 20 µM
IC50 at 72 h ([2]; Table 4.1): > 20 µM
IC50 at 72 h ([3]; Table 4.1): 13.8 µM

O=C(N/C=C/c1ccc([N+](=O)[O-])c(C(F)(F)F)c1)NCc1cccc(C(F)(F)F)c1 [Compound 461]
IC50 at 72 h ([1]; Table 2.4): 3.4 µM
IC50 at 72 h ([2]; Table 2.4): 3.4 µM
IC50 at 72 h ([3]; Table 2.4): 2.4 µM

O=C(Nc1cccc(C(F)(F)F)c1)Nc1ccc2[nH]ccc2c1 [Compound 522]
IC50 at 72 h ([1]; Table 4.1): > 10 µM
IC50 at 72 h ([2]; Table 4.1): > 10 µM
IC50 at 72 h ([3]; Table 4.1): > 10 µM

O=C(N/C=C/c1cccc(C(F)(F)F)c1)Nc1cnc2ccccc2c1 [Compound 525]
IC50 at 72 h ([1]; Table 2.3): > 10 µM
IC50 at 72 h ([2]; Table 2.3): > 10 µM
IC50 at 72 h ([3]; Table 2.3): > 10 µM

N#Cc1ccc(NC(=O)N/C=C/c2cccs2)cc1 [Compound 424]
IC50 at 72 h ([1]; Table 2.4): 14.4 µM
IC50 at 72 h ([2]; Table 2.4): 16.7 µM
IC50 at 72 h ([3]; Table 2.4): 5 µM

O=C(N/C=C/c1cc(C(F)(F)F)ccc1C(F)(F)F)Nc1ccc2ncccc2c1 [Compound 517]
IC50 at 72 h ([1]; Table 2.3): 6.2 µM
IC50 at 72 h ([2]; Table 2.3): > 10 µM
IC50 at 72 h ([3]; Table 2.3): 3.4 µM

CC(C)(C)OC(=O)n1cc(/C=C/NC(=O)Nc2ccc([N+](=O)[O-])c(C(F)(F)F)c2)c2ccccc21 [Compound 450]
IC50 at 72 h ([1]; Table 2.4): 4.9 µM
IC50 at 72 h ([2]; Table 2.4): 4 µM
IC50 at 72 h ([3]; Table 2.4): 1.8 µM

O=C(Nc1cc(C(F)(F)F)cc(C(F)(F)F)c1)Nc1ccncn1 [Compound 578]
IC50 at 72 h ([1]; Table 4.1): 2.4 µM
IC50 at 72 h ([2]; Table 4.1): 5.5 µM
IC50 at 72 h ([3]; Table 4.1): 1.3 µM

O=C(N/C=C/c1ccc(C(F)(F)F)cc1)Nc1ccc2c(c1)OCO2 [Compound 432]
IC50 at 72 h ([1]; Table 2.3): > 20 µM
IC50 at 72 h ([2]; Table 2.3): > 20 µM
IC50 at 72 h ([3]; Table 2.3): > 20 µM

O=C(N/C=C/c1cccc(C(F)(F)F)c1)Nc1ccccc1NC(=O)N/C=C/c1cccc(C(F)(F)F)c1 [Compound 451]
IC50 at 72 h ([1]; Table 5.1): 5.4 µM
IC50 at 72 h ([2]; Table 5.1): 4.4 µM
IC50 at 72 h ([3]; Table 5.1): 2.4 µM

O=C(N/C=C/c1cccs1)Nc1cccc(C(F)(F)F)c1 [Compound 420]
IC50 at 72 h ([1]; Table 2.4): 12.3 µM
IC50 at 72 h ([2]; Table 2.4): 12.3 µM
IC50 at 72 h ([3]; Table 2.4): 6.4 µM

O=C(N/C=C/c1cccc(C(F)(F)F)c1)Nc1cccc(NC(=O)N/C=C/c2cccc(C(F)(F)F)c2)c1 [Compound 440]
IC50 at 72 h ([1]; Table 5.1): 5.1 µM
IC50 at 72 h ([2]; Table 5.1): 4.9 µM
IC50 at 72 h ([3]; Table 5.1): 1.7 µM

O=C(N/C=C/c1cc(C(F)(F)F)cc(C(F)(F)F)c1)Nc1ccn(C(=O)N/C=C/c2cc(C(F)(F)F)cc(C(F)(F)F)c2)c(=O)n1 [Compound 532]
IC50 at 72 h ([1]; Table 5.1): 5.1 µM
IC50 at 72 h ([2]; Table 5.1): 4.3 µM
IC50 at 72 h ([3]; Table 5.1): 2.4 µM

O=C(N/C=C/c1cc(C(F)(F)F)cc(C(F)(F)F)c1)Nc1cnc2ccccc2c1 [Compound 523]
IC50 at 72 h ([1]; Table 2.3): 10 µM
IC50 at 72 h ([2]; Table 2.3): 8.4 µM
IC50 at 72 h ([3]; Table 2.3): 8 µM

O=C(N/C=C/c1ccco1)Nc1ccc([N+](=O)[O-])c(C(F)(F)F)c1 [Compound 434]
IC50 at 72 h ([1]; Table 2.4): 7.8 µM
IC50 at 72 h ([2]; Table 2.4): 5.6 µM
IC50 at 72 h ([3]; Table 2.4): 2 µM

Reference: patent US20170273922A1, “UREA AND BIS-UREA BASED COMPOUNDS AND ANALOGUES THEREOF USEFUL IN THE TREATMENT OF ANDROGEN RECEPTOR MEDIATED DISEASES OR DISORDERS” (THE ROYAL INSTITUTION FOR THE ADVACEMENT OF LEARNING/MCGILL …, priority 2014, published 2017)
